For orientation: pIC50 means −log10 of the IC50, conventionally taken in molar units. For orientation: logD means the decadic logarithm of the distribution of all forms, ionised or not, between an organic phase and buffer at a given pH. Read a high logD as higher lipophilicity. The term solubility denotes how much of the substance goes into solution per volume. A low value points to a poorly soluble substance. The term efflux ratio denotes the permeability from basolateral to apical divided by that in the opposite direction, in the common usage.

pIC50: −log10 of the molar value. Converted amounts (≈) assume the structure as drawn.

A short description of data set [1]: Inhibition of cell proliferation of human DLD-1 cells expressing BRCA2-/- incubated for 7 days by Sytox green dye based analysis. The format is functional. The note with it: DLD-1, 168 h.
A short description of data set [2]: Ratio of unbound drug concentration in brain to plasma of rat. Conditions: brain and plasma (unbound), read-out: K(p,uu,brain). The data set is classed as ADME, cell-free.
The target in data set [3] is Voltage-gated inwardly rectifying potassium channel KCNH2 (Homo sapiens, UniProt Q12809). The data set can be described thus: (§1) Inhibition of hERG transfected in CHO cells by electrophysiology. The format is toxicity, cell-based. A general note: hERG is a cardiac potassium channel; its block is linked to QT prolongation.
Voltage-gated inwardly rectifying potassium channel KCNH2, sequence (Q12809 whole entry): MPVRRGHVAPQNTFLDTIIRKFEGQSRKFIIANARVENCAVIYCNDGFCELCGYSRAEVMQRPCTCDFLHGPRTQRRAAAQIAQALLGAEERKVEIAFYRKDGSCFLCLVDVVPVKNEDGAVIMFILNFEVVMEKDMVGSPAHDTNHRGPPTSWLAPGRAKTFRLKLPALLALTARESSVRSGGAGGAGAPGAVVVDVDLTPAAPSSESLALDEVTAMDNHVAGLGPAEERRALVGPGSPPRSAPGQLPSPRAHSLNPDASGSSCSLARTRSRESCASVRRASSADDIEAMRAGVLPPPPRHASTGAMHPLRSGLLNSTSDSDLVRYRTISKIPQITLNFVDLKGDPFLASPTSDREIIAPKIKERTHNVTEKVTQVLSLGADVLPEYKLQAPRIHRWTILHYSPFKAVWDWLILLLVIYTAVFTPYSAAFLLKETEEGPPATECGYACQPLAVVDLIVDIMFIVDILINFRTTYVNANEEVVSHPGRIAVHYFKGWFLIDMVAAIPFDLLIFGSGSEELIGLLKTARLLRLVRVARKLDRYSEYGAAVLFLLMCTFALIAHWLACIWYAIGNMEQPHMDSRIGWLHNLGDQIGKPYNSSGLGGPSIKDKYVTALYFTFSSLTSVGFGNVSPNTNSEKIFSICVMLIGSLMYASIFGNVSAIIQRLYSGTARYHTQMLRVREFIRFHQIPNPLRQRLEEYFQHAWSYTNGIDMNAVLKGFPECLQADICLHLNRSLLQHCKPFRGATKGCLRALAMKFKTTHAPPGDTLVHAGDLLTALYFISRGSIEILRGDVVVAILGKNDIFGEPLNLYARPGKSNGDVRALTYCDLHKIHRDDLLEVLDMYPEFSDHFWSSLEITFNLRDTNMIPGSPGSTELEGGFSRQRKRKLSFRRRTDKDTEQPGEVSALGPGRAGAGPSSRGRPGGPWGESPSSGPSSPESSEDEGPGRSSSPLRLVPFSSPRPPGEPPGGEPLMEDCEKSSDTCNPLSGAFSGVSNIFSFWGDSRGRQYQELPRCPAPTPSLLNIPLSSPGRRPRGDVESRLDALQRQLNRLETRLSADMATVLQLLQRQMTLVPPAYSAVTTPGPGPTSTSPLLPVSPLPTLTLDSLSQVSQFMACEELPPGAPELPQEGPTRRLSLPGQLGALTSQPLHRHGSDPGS
The target in data set [4] is Poly [ADP-ribose] polymerase 1 (Homo sapiens, UniProt P09874). The data set can be described thus: Inhibition of N-terminal 6His-tagged full-length recombinant human PARP1 by fluorescence anisotropy assay. In general terms: In fluorescence polarisation assays a small probe gives low polarisation when free and higher when bound to something large.
Poly [ADP-ribose] polymerase 1, sequence (P09874 whole entry): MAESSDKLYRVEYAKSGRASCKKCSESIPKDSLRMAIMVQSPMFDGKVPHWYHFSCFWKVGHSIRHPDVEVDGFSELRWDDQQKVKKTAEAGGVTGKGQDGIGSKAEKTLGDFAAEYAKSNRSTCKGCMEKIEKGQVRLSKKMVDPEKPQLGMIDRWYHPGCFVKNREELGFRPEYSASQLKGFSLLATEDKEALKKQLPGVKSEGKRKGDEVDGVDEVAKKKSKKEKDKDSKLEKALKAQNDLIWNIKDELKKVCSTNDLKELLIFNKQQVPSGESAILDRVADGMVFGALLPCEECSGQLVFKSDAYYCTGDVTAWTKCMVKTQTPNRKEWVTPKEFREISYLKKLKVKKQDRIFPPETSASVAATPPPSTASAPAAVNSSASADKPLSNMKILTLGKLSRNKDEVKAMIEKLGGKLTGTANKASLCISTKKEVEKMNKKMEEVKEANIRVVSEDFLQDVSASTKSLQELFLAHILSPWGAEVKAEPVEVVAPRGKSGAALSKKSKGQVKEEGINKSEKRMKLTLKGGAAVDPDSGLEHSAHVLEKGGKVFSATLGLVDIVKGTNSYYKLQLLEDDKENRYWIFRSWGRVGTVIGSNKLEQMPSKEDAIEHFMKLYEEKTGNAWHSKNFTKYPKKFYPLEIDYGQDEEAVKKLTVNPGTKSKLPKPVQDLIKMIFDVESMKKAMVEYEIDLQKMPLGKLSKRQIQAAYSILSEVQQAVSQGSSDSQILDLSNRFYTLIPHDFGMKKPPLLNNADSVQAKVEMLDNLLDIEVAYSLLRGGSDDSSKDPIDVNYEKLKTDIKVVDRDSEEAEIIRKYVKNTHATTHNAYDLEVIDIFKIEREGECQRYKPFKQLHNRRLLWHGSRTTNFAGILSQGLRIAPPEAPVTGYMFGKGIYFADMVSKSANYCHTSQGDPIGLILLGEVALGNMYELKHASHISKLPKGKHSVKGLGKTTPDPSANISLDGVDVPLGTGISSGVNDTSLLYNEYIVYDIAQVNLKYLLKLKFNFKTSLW
A short description of data set [5]: Lipophilicity, log D of compound at pH 7.4. The data set is classed as physicochemical. The note with it: buffer.
Data set [6] can be described thus: Solubility of compound at pH 7.4. The format is physicochemical. Conditions: buffer.
The target in data set [7] is Poly [ADP-ribose] polymerase 2 (Homo sapiens, UniProt Q9UGN5). The data set can be described thus: Inhibition of N-terminal 6His-tagged full-length recombinant human PARP2 by fluorescence anisotropy assay.
Poly [ADP-ribose] polymerase 2, sequence (Q9UGN5 whole entry): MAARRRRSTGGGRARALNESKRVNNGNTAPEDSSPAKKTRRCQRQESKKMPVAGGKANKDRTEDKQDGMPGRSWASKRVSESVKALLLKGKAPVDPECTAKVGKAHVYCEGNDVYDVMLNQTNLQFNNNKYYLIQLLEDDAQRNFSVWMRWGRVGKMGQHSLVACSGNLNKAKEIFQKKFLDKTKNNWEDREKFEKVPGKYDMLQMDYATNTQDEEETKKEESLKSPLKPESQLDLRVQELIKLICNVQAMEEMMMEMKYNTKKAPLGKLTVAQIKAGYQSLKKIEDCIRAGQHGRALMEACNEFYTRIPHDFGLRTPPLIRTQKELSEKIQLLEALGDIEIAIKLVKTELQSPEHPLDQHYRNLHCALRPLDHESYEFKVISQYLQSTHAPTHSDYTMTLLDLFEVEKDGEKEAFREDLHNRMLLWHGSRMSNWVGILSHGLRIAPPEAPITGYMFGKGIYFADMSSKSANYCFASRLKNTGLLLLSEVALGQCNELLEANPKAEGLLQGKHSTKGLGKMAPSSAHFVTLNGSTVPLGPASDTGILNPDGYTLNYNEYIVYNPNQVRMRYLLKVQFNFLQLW
The subject of data set [8] is MDR1 (P-gp), BCRP. The data set can be described thus: Efflux ratio in MDCK-MDR1-BCRP cells. The data set is classed as ADME, cell-based, Canis lupus familiaris. The note with it: dog.
The nature of data set [9]: Intrinsic clearance in human liver microsomes. The data set is classed as ADME, Microsome. Conditions: read-out: CLH. For orientation: Liver microsomes are vesicles of endoplasmic reticulum, rich in cytochrome P450 enzymes.
The target in data set [10] is hERG (KCNH2) (Homo sapiens, UniProt Q12809). The data set is described as §1. The format is toxicity, cell-based. The note with it: human, CHO cells transfected with hERG.
hERG (KCNH2), sequence (Q12809 whole entry): as the sequence (Q12809 whole entry) above

For the compound `CCc1cc2cnc(CN3CCN(c4ccc(C(=O)NC)nc4)CC3)cc2[nH]c1=O`, the negative-log IC50 (pIC50) in data set [1] is 8.52.
On to `CCc1nc2ccc(CN3CCN(c4ccc(F)nc4C)CC3)cc2[nH]c1=O`, for which, in [2], the Kp uu came to 0.36. Moreover, the negative logarithm of the IC50 (pIC50) in data set [3] is 4.96; in data set [4] it was 8.30; in [7], 4.28; in data set [1], 8.00. The same compound showed a logD in [5] of 3.3. Further, in [6], the solubility stood at 30 µM (≈ 11.4 µg/mL). For the same compound, the efflux ratio in data set [8] came to 1.3. Further, the microsomal CLint in data set [9] amounted to 13 µL/min/mg.
Turning to `CCc1cc2ccc(CN3CCN(c4ccc(C(=O)NC)nc4)CC3)cc2[nH]c1=O`, the Kp uu in [2] was determined as 0.1. For the same compound, the figures for the pIC50 in data set [10] and in data set [1] were 4.68 and 8.40, respectively. Also, in data set [8], the efflux ratio was 2.8.
In turn, `CCc1nc2ccc(CN3CCN(c4ccc(C(=O)NC)nc4C)CC3)cc2[nH]c1=O` displayed a logD in [5] of 2.9. In addition, the concentration in solution in [6] (solubility) came to 13 µM (≈ 5.47 µg/mL). Moreover, the pIC50 in data set [1] is 8.70. Also, the efflux ratio in [8] was determined as 2.2. The microsomal CLint in data set [9] worked out at 10 µL/min/mg.
In the case of `CCc1nc2ccc(CN3CCN(c4cnc(F)cc4C)CC3)cc2[nH]c1=O`, the Kp uu in [2] was 0.2. For the same compound, the pIC50 is 4.64 in data set [3], 7.96 in data set [4], under 4.17 in data set [7] and 7.89 in [1]. The logD in data set [5] came out at 3.3. The compound further came in with a solubility in data set [6] of 9 µM (≈ 3.43 µg/mL). The efflux ratio in data set [8] is 1. Moreover, the microsomal CLint in data set [9] was 19 µL/min/mg.
With `CCc1cc2ncc(CN3CCN(c4ccc(C(=O)NC)nc4)CC3)cc2[nH]c1=O` [SARUPARIB], the Kp uu in data set [2] is under 0.1. Also, in data set [10], the pIC50 was under 4.40. In data set [9], the microsomal CLint is under 6 µL/min/mg.
Consider `CCc1nc2ccc(CN3CCN(c4ccc(C(=O)NC)nc4F)CC3)c(C)c2[nH]c1=O`, for which the logD in [5] turned out to be 3.1. For the same compound, the solubility in [6] is under 2 µM. The pIC50 in data set [7] is under 4.00; in [1], 7.92. The microsomal CLint in data set [9] is under 3 µL/min/mg.
For the compound `CNC(=O)c1ccc(N2CCN(Cc3ccc4nc(C)c(=O)[nH]c4c3F)CC2)c(C)n1`, in [2], the Kp uu was found to be 0.19. For the same compound, the pIC50 in data set [10] was under 4.40; in [1] it was 8.15. For the same compound, the pH-dependent lipophilicity (logD) in [5] is 2.2. For the same compound, the solubility in [6] came to 11 µM (≈ 4.67 µg/mL). For the same compound, the efflux ratio in data set [8] is 1.6. Further, the microsomal CLint in data set [9] was under 3 µL/min/mg.
As for `C[C@]12CCCN1CC1=NNC(=O)c3cc(F)cc4[nH]c2c1c34` [PAMIPARIB], in data set [2], the Kp uu amounted to 0.1. In addition, the pIC50 in data set [7] is 8.22; in data set [1] it was 8.15.
As to `CCc1cc2ccc(CN3CCN(c4cnc(C(=O)NC)cc4C)CC3)cc2[nH]c1=O`, the pIC50 in [3] was 5.10; in data set [4] it was 8.22; in data set [7] it was 5.20; in data set [1] it was 5.94. Moreover, the logD in data set [5] came to 3.3. Further, the solubility in data set [6] came to 3 µM (≈ 1.26 µg/mL). In addition, the microsomal CLint in data set [9] was 33 µL/min/mg.
Take `CCc1nc2ccc(CN3CCN(c4ccc(F)nc4)CC3)cc2[nH]c1=O`: the pIC50 in data set [3] was under 4.40; in data set [4], 8.05; in data set [7], 4.34; in data set [1], 7.18. This compound had a logD in data set [5] of 2.6. Also, in data set [6], the solubility is 9 µM (≈ 3.31 µg/mL). Further, the efflux ratio in [8] came out at 0.5. In data set [9], the microsomal CLint is under 3 µL/min/mg.
Take `CCc1cc2ccc(CN3CCN(c4ccc(C(=O)NC)nc4C)CC3)cc2[nH]c1=O`: the pIC50 in [3] was 4.77; in data set [4] it was 8.30; in data set [7] it was 5.82; in data set [1], 8.70. Besides, the logD in data set [5] is 3.3. In data set [6], the concentration in solution (solubility) was 3 µM (≈ 1.26 µg/mL). Further, in data set [9], the microsomal CLint came to 19 µL/min/mg.

For the origin of these results see ChEMBL document CHEMBL6078698, “Discovery of 6-Fluoro-5-{4-[(5-fluoro-2-methyl-3-oxo-3,4-dihydroquinoxalin-6-yl)methyl]piperazin-1-yl}-N-methylpyridine-2-carboxamide (AZD9574): A CNS-Penetrant, PARP1-Selective Inhibitor” (J Med Chem, 2024).
